Measurements published in patent publication US10919896B2, “Preparation and uses of pyrimidinone derivatives” (Cancer Research Technology Limited, priority 2016, dated 2021).

What was measured:
[1] = biological target: Cdc7/Dbf4 (Homo sapiens, UniProt O00311); experiment: Cdc7 Biochemical Assay Method 3: Cdc7/Dbf4 Enzyme TR-FRET Assay measuring pS40MCM2; conditions: 1 μM ATP, read-out: Biochemical Method 3 (pIC50) (converted)
Summary of the method: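 TR-FRET read-out (terbium anti-rabbit donor, streptavidin-Alexa Fluor488 acceptor, anti-Mcm2 pS40 antibody) of peptide phosphorylation after 120 min at 25° C; reaction held 1 μM ATP, 100 nM biotin-tagged peptide substrate and 2.5 nM enzyme complex.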

[2] = test system: Cdc7 (pS40MCM2 levels in HCT116 cells); experiment: Cdc7 Cell Pharmacodynamics Assay Method 2B: pS40MCM2 levels in HCT116 cells, 18 hours; type: cell-based; conditions: Homo sapiens, HCT-116, read-out: Biomarker Method 2B (pEC50) (converted)
Source text: This protocol describes a method to investigate the inhibition of Cdc7 activity by measuring pS40MCM2 levels in cells, after treatment with compounds.
• HCT116 cells (ATCC, #CCL-247) • McCoys 5A with L-glutamine (Cellgro, #10-050-CV) • 10% FCS (Cellgro, #35-010-CV) • D-PBS without CaCl2 and MgCl2 (Cellgro, #21-031-CV) • Trypsin/EDTA (Cellgro, #25-052-CL) • BSA (Calbiochem, 126593) • Cell Extraction Buffer (Invitrogen FNN0011) • Protease inhibitor cocktail (Sigma P-2714) • PMSF 0.3M stock in DMSO (Sigma P7626) • Antibody-rabbit pMCM2 Ser40 (Abcam, AB133243) • Antibody-goat MCM2 (Bethyl #A300-122A) • Antibody-goat Anti Rabbit IgG HRP (Thermo, 31462) • SuperSignal ELISA Pico Chemiluminescent Substrate (Perbio Science UK Ltd 37069) • 10×PBS (Growcells, MRGF-6236) • Triton X100 (Sigma, P-T8787) • DMSO (Fisher, D128-1) • 2-Propanol (J. T. Baker, 9095-03) Method • Seed 1×10^6 HCT116 cells into each of two 175 cm^2 flask containing 30 mL Cell Growth Media and incubate at 37° C., 5% CO2 for 3 days. • Harvest the cells from one T175 cm^2 flask and count. • Dilute with Cell Growth Media to a cell density of 2×10^5. Dispense 100 μL to each well (20,000 HCT116 cells/well) of TC treated 96-well plate(s). • Allow cells to settle overnight in incubator set at 37° C. and 5% CO2. • Cell treatment: Transfer 0.25 μL/well from the compound plate to the wells of the cell plate(s). This is a 1:400 dilution of compound in the assay. • Once all cells are treated place the cells back to the incubator and incubate for either 6 hours (Method 2A) or 18 hours (Method 2B). • Dilute the capture antibody (total MCM2#A300-122A) 1 in 250 in the required volume of PBS (5 mL per assay plate, plus 5 mL for dead volume) and add 50 μL to each well of a Hybond plate except wells A12 & B12. Seal the plate and incubate at room temperature for a minimum of 2 hours. • Defrost aliquot of Invitrogen Cell Extraction Buffer (FNN0011) on ice and supplement with appropriate volume of both Sigma protease inhibitor cocktail (P-2714) and PMSF (final conc 1 mM from a 1 M stock in DMSO). • After the 6 hour or 18 hour cell treatment time, tap out the media from the assay plates and place them in the −70° C. freezer for at least 5 minutes. • Flick out the remaining liquid in the previously prepared capture Ab plate(s) and add 200 μL 2% BSA per well. Incubate for 1 hour at room temperature. • Remove plates from freezer and add 20 μL of ice cold complete lysis buffer. Incubate cells for 30 minutes at 4° C. • Add 30 μL per well 2% BSA • At the end of the 1 hour incubation, wash the Capture/ELISA plate(s) with Wash Buffer on the BioTek plate washer. • Transfer 40 μL per well of the lysis plate(s) to the same wells in the Capture/ELISA plate. Incubate cells overnight at 4° C. • At the end of the overnight incubation, wash the ELISA plate(s) with Wash Buffer on BioTek plate washer. • Prepare Detection Antibody Buffer and dispense 50 μL to all wells of ELISA plate(s) except wells G1 & H1. Cover plate and incubate at room temperature for 2 hours with gentle shaking. • At the end of the 2 hour incubation, wash the ELISA plate(s) with Wash Buffer on the BioTek plate washer. • Prepare the Conjugated Antibody Buffer and dispense 50 μL to all wells of ELISA plate(s). • Cover the plate and incubate at room temperature for 1 hour with gentle shaking. • At the end of the 1 hour incubation, wash the ELISA plate(s) with Wash Buffer on the BioTek plate washer. • Prepare Substrate Buffer and dispense 50 μL to all wells of ELISA plate(s). • Incubate for a minimum of 10 minutes and read plates on the EnVision 2100 Multilabel Reader (Mirror: Luminescence (404) & Luminescence 700 (212); Measurement Height: 6.5 mm; Measurement Time: 0.2 s). Method 3

[3] = test system: Cdc7 (pS53MCM2 levels in SW48 cells); experiment: Cdc7 Cell Pharmacodynamics Assay Method 3: pS53MCM2 levels in SW48 cells, 6 hours; type: cell-based; conditions: Homo sapiens, SW48, 6 h, read-out: Biomarker Method 3 (pEC50) (converted)
Source text: This protocol describes a method to investigate the inhibition of Cdc7 activity by measuring pS53MCM2 levels in cells, after treatment with compounds.
• SW48 cells • RPMI 1640 (Sigma, R5886) • 10% FCS (Sera Laboratories International Ltd, EU000F Batch:108005) • 100× L-Glutamine (Invitrogen, 25030-024) • D-Glucose Solution (10%) (Sigma, G8644) • HEPES Buffer Solution (Sigma, 83264) • Sodium Pyruvate (Sigma, S8636) • PBS (Fisger, BP399-4) • Trypsin/EDTA (Invitrogen 25300-054) • 2% BSA in PBS • Cell Extraction Buffer (Invitrogen FNN0011) • Protease inhibitor cocktail (Sigma P-2714) • PMSF 0.3M stock in DMSO (Sigma P7626) • Antibody-rabbit pMCM2 Ser53 (Bethyl #A300-756A) • Antibody-goat MCM2 (Bethyl #A300-122A) • Antibody-goat Anti Rabbit IgG HRP (Perbio Science UK Ltd 31462) • SuperSignal ELISA Pico Chemiluminescent Substrate (Perbio Science UK Ltd 37070) Method • Plate 30,000 SW48 cells per well in standard TC treated 96 well plate in 100 μL complete RPMI 1640 medium. • Allow cells to settle overnight in incubator set at 37° C. and 5% CO2. • Cell treatment: prepare a 384 well plate containing 80 μl PBS/well. The PBS should be at room temperature—to be referred to as intermediate plate. Transfer 2 μL of compound from mother plate to intermediate (daughter plate) 1:40 dilution, then 5 μL intermediate to cell (daughter) plate. • Once all cells are treated place the cells back to the incubator and incubate for 6 hours. • Dilute the capture antibody (total MCM2#A300-122A) 1 in 250 in the required volume of PBS (5 mL per assay plate, plus 5 mL for dead volume) and add 50 μL to each well of a Hybond plate. Seal the plate and incubate at room temperature for a minimum of 2 hours. • Defrost aliquot of Invitrogen Cell Extraction Buffer (FNN0011) on ice and supplement with appropriate volume of both Sigma protease inhibitor cocktail (P-2714) and PMSF (final conc 1 mM from a 1 M stock in DMSO). • After the 6 hour cell treatment time, tap out the media from the assay plates and place them in the −80° C. freezer for at least 5 minutes. • Remove plates from freezer and add 20 μL of ice cold complete lysis buffer, with the multidrop. Incubate cells for 30 minutes at 4° C. • Add 80 μL per well 2% BSA. • Flick out the remaining liquid from the capture plate and transfer 80 μL from the lysis plate to the same wells in the capture/ELISA plate, using the Biomek. Cover with plate seal and incubate plates overnight at 4° C. • Wash plates with PBS, remove any residual remaining liquid and add 50 μL per well of pMCM2 Ser53 antibody (#A300-756A) diluted 1 in 100 in 2% BSA. Cover plate and incubate at room temperature for 2 hours with gentle shaking. • Wash plates with PBS, remove any residual remaining liquid and Incubate with 50 μL goat anti rabbit antibody (1 in 800 dilution in 2% BSA), for 1 hour at room temperature. • Wash plates with PBS, remove any residual remaining liquid and add 50 μL mixed SuperSignal Pico substrate. • Incubate each plate for 5 minutes at room temperature shielding the plates from direct light (with a cover plate). Read plates with the luminescent detection.

Chain of Cdc7/Dbf4 (O00311 whole entry): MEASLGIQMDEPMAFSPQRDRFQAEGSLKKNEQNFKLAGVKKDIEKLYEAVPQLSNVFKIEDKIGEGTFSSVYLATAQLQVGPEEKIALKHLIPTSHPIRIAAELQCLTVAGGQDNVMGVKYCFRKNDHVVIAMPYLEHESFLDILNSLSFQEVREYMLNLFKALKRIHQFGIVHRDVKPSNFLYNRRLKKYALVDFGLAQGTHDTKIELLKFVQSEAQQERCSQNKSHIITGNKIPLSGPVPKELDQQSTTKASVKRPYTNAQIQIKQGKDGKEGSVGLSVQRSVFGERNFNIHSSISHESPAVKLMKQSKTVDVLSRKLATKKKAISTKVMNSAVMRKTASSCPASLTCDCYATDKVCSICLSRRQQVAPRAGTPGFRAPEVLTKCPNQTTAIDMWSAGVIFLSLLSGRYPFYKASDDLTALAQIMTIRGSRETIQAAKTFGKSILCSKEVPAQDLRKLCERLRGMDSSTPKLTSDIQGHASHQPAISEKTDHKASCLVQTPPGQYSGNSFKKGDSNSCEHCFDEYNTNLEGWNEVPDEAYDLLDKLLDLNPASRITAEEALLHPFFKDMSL
Chain of Cdc7/Dbf4 (Q9UBU7 whole entry partner): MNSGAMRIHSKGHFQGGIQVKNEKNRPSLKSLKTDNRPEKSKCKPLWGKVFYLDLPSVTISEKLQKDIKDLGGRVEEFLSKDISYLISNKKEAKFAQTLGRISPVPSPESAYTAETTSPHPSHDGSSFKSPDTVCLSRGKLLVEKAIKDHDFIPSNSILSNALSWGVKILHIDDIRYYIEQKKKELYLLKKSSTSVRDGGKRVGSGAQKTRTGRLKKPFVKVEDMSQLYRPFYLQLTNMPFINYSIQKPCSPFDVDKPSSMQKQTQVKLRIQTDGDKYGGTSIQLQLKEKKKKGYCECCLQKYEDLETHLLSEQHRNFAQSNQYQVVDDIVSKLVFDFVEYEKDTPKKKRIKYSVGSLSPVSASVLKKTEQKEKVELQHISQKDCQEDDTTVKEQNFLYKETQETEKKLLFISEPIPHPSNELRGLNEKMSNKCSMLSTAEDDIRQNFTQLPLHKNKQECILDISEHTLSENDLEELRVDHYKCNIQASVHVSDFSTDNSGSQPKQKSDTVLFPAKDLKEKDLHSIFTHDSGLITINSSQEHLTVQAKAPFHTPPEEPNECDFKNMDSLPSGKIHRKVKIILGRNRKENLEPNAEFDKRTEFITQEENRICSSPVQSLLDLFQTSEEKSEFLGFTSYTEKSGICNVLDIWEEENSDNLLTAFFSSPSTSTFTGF

SMILES | IC50 [1] | EC50 [2] | EC50 [3]
C[C@H]1CN[C@@H](C(F)(F)F)CN1c1nc(-c2ccnc(F)c2)[nH]c(=O)c1Cl (racemic) [Compound 378, Cis-5-chloro-2-(2-fluoro-4-pyridyl)-4-[2-methyl-5-(trifluoromethyl)piperazin-1-yl]-1H-pyrimidin-6-one] | 5.89 nM | 437 nM | 2090 nM
O=c1[nH]c(-c2ccnc(F)c2)nc(N2CCCNCC2)c1Cl [Compound 206] | 0.0977 nM | 39.8 nM | 562 nM
O=c1[nH]c(-c2ccnc(F)c2)nc(N2C3CCC2CNC3)c1Cl [Compound 262] | 0.851 nM | 19.5 nM | 347 nM
C[C@@H]1CCCN1c1nc(-c2ccnc(F)c2)[nH]c(=O)c1Cl [Compound 279] | 0.724 nM | 57.5 nM | 1320 nM
O=c1[nH]c(-c2ccnc(F)c2)nc(N2CCC3(COC3)C2)c1Cl [Compound 284] | 2.09 nM | 389 nM | –
O=c1[nH]c(-c2ccnc(F)c2)nc(N2CCOCC(F)(F)C2)c1Cl [Compound 286] | 0.229 nM | 15.5 nM | 513 nM
O=c1[nH]c(-c2ccnc(F)c2)nc(N2CCN3CCC2CC3)c1Cl [Compound 293] | 0.363 nM | 29.5 nM | –
O=c1[nH]c(-c2ccnc(F)c2)nc(N2CCNC(C(F)(F)F)CC2)c1Cl (stereo not drawn) [Compound 296] | 7.59 nM | 1020 nM | –
CC1(C)CN(c2nc(-c3ccnc(F)c3)[nH]c(=O)c2Cl)CCN1 [Compound 297] | 3.24 nM | 912 nM | –
CN1CCCN(c2nc(-c3ccnc(F)c3)[nH]c(=O)c2Cl)CC1 [Compound 298] | 4.07 nM | 331 nM | –
CC1(C)CN(c2nc(-c3ccnc(F)c3)[nH]c(=O)c2Cl)CCO1 [Compound 300] | 3.02 nM | 115 nM | –
CC1(C)CN(c2nc(-c3ccnc(F)c3)[nH]c(=O)c2Cl)CCCO1 [Compound 301] | 10.5 nM | 1910 nM | –
CC1CCN(c2nc(-c3ccnc(F)c3)[nH]c(=O)c2Cl)CCN1 (stereo not drawn) [Compound 303] | 2.09 nM | 126 nM | –
CC1(F)CNCCN(c2nc(-c3ccnc(F)c3)[nH]c(=O)c2Cl)C1 (stereo not drawn) [Compound 304] | 1.38 nM | 214 nM | –
N#CC[C@H]1CN(c2nc(-c3ccnc(F)c3)[nH]c(=O)c2Cl)CCN1 [Compound 306] | 1.29 nM | 174 nM | –
CC[C@@H]1COCCN1c1nc(-c2ccnc(F)c2)[nH]c(=O)c1Cl [Compound 335] | 1.1 nM | 457 nM | –
C[C@@H]1CN(c2nc(-c3ccnc(F)c3)[nH]c(=O)c2Cl)CCO1 [Compound 337] | 1.12 nM | 372 nM | –
O=c1[nH]c(-c2ccnc(F)c2)nc(N2CCCOCC2)c1Cl [Compound 338] | 0.708 nM | 178 nM | –
CC1CN(c2nc(-c3ccnc(F)c3)[nH]c(=O)c2Cl)C(C)CO1 (stereo not drawn) [Compound 340] | 2.51 nM | 174 nM | –
N#C[C@@H]1CNCCN1c1nc(-c2ccnc(F)c2)[nH]c(=O)c1Cl [Compound 345] | 1.29 nM | 1740 nM | –
O=c1[nH]c(-c2ccnc(F)c2)nc(N2CCN3CC(F)(F)C[C@H]3C2)c1Cl [Compound 347] | 3.63 nM | 316 nM | –
O=c1[nH]c(-c2ccnc(F)c2)nc(N2CCN3CCC[C@H]3C2)c1Cl [Compound 348] | 1.95 nM | 257 nM | –
O=c1[nH]c(-c2ccnc(F)c2)nc(N2CCN(CC(F)F)CC2)c1Cl [Compound 350] | 2.19 nM | 155 nM | –
CC1CCNCCN1c1nc(-c2ccnc(F)c2)[nH]c(=O)c1Cl (stereo not drawn) [Compound 351] | 1.35 nM | 138 nM | –
C[C@@H]1CNCCCN1c1nc(-c2ccnc(F)c2)[nH]c(=O)c1Cl [Compound 352] | 3.63 nM | 437 nM | –
CC1COCCCN1c1nc(-c2ccnc(F)c2)[nH]c(=O)c1Cl (stereo not drawn) [Compound 355] | 2.69 nM | 288 nM | –
C[C@@H]1CN(c2nc(-c3ccnc(F)c3)[nH]c(=O)c2Cl)[C@H](C)CO1 [Compound 357] | 2.09 nM | 200 nM | –
CC1OCCN(c2nc(-c3ccnc(F)c3)[nH]c(=O)c2Cl)C1C (stereo not drawn) [Compound 359] | 2 nM | 27.5 nM | –
O=c1[nH]c(-c2ccncc2)nc(N2CC(F)(F)OC(F)(F)C2)c1Cl [Compound 413, 5-chloro-2-(4-pyridyl)-4-(2,2,6,6-tetrafluoromorpholin-4-yl)-1H-pyrimidin-6-one] | 1.38 nM | 309 nM | –
